Results published in US12545639B2, “3-substituted phenylamidine compounds, preparation and use thereof” (PI INDUSTRIES LTD., priority 2019, dated 2026).

Tests used:
[1] = system: Septoria lycopersici/Corynespora cassicola (CORYCA); test: Septoria lycopersici/Corynespora cassicola (CORYCA) (leaf spot of tomato) in vitro test, radial growth on potato dextrose agar; assay type: cell-based; settings: 168 h, 300 ppm in potato dextrose agar, 25° C., 70% relative humidity, seven days, read-out: control compared to the untreated check (radial growth)
Botrytis cinerea = Botrytis cinerea (gray mold) in vitro test, radial growth on potato dextrose agar; assay type: cell-based; settings: 168 h, 300 ppm in potato dextrose agar, 22° C., 90% relative humidity, seven days, read-out: control compared to the untreated check (radial growth)
Rhizoctonia solani = Rhizoctonia solani (rice sheath blight/potato black scurf) in vitro test, radial growth on potato dextrose agar; assay type: cell-based; settings: 168 h, 300 ppm in potato dextrose agar, 25° C., 60% relative humidity, seven days, read-out: control compared to the untreated check (radial growth)
Pyricularia oryzae = test: microbe, parasite or virus in culture; assay type: cell-based; settings: 168 h, read-out: control compared to the untreated check (radial growth)
Phakopsora pachyrhizi = Phakopsora pachyrhizi test in soybean, preventive, in vivo on plants; settings: in Glycine max, read-out: Efficacy (% control), disease severity compared to the untreated check
Alternaria solani = Alternaria solani (early blight of tomato/potato) in vitro test, radial growth on potato dextrose agar; assay type: cell-based; settings: 168 h, 300 ppm in potato dextrose agar, 25° C., 60% relative humidity, seven days, read-out: control compared to the untreated check (radial growth)

CCN(C)C=Nc1cc(F)cc(Nc2cccc(F)c2)c1C [Compound 29, N-ethyl-N′-(5-fluoro-3-((3-fluorophenyl)amino)-2-methylphenyl)-N-methylformimidamide]
≥ 70%: inhibition of growth at 300 ppm [1] | inhibition of growth at 300 ppm (Botrytis cinerea) | inhibition of growth at 300 ppm (Rhizoctonia solani) | inhibition of growth at 300 ppm (Pyricularia oryzae) | pest or weed control at 500 ppm (Phakopsora pachyrhizi) | inhibition of growth at 300 ppm (Alternaria solani)

CCN(C)C=Nc1cc(F)cc(Cc2cc(F)cc(OC)c2)c1C [Compound 237, N-ethyl-N′-(5-fluoro-3-(3-fluoro-5-methoxybenzyl)-2-methylphenyl)-N-methylformimidamide]
≥ 70%: inhibition of growth at 300 ppm [1] | inhibition of growth at 300 ppm (Botrytis cinerea) | inhibition of growth at 300 ppm (Rhizoctonia solani) | inhibition of growth at 300 ppm (Pyricularia oryzae) | pest or weed control at 500 ppm (Phakopsora pachyrhizi) | inhibition of growth at 300 ppm (Alternaria solani)

CCN(C)C=Nc1cc(C)cc(Cc2cccc(F)c2)c1Cl [Compound 22, N′-(2-chloro-3-(3-fluorobenzyl)-5-methylphenyl)-N-ethyl-N-methylformimidamide]
≥ 70%: inhibition of growth at 300 ppm [1] | inhibition of growth at 300 ppm (Botrytis cinerea) | inhibition of growth at 300 ppm (Rhizoctonia solani) | inhibition of growth at 300 ppm (Pyricularia oryzae) | pest or weed control at 500 ppm (Phakopsora pachyrhizi) | inhibition of growth at 300 ppm (Alternaria solani)

CCN(C)C=Nc1cc(C)cc(Cc2ccccc2)c1Cl [Compound 70, N′-(3-benzyl-2-chloro-5-methylphenyl)-N-ethyl-N-methylformimidamide]
≥ 70%: inhibition of growth at 300 ppm [1] | inhibition of growth at 300 ppm (Botrytis cinerea) | inhibition of growth at 300 ppm (Rhizoctonia solani) | inhibition of growth at 300 ppm (Pyricularia oryzae) | pest or weed control at 500 ppm (Phakopsora pachyrhizi) | inhibition of growth at 300 ppm (Alternaria solani)

CCN(C)C=Nc1cc(Cl)cc(N(C)c2ccccc2C)c1C [Compound 191, N′-(5-chloro-2-methyl-3-(methyl(o-tolyl)amino)phenyl)-N-ethyl-N-methylformimidamide]
≥ 70%: inhibition of growth at 300 ppm [1] | inhibition of growth at 300 ppm (Botrytis cinerea) | inhibition of growth at 300 ppm (Rhizoctonia solani) | inhibition of growth at 300 ppm (Pyricularia oryzae) | pest or weed control at 500 ppm (Phakopsora pachyrhizi) | inhibition of growth at 300 ppm (Alternaria solani)

CCN(C)C=Nc1cc(F)cc(N(C)c2cc(F)cc(F)c2)c1C [Compound 84, N′-(3-((3,5-difluorophenyl)(methyl)amino)-5-fluoro-2-methylphenyl)-N-ethyl-N-methylformimidamide]
≥ 70%: inhibition of growth at 300 ppm [1] | inhibition of growth at 300 ppm (Botrytis cinerea) | inhibition of growth at 300 ppm (Rhizoctonia solani) | pest or weed control at 500 ppm (Phakopsora pachyrhizi) | inhibition of growth at 300 ppm (Alternaria solani)

CCN(C)C=Nc1cc(F)cc(N(C)c2cc(C)ccc2Cl)c1C [Compound 117, N′-(3-((2-chloro-5-methylphenyl)(methyl)amino)-5-fluoro-2-methylphenyl)-N-ethyl-N-methylformimidamide]
≥ 70%: inhibition of growth at 300 ppm [1] | inhibition of growth at 300 ppm (Botrytis cinerea) | inhibition of growth at 300 ppm (Pyricularia oryzae) | pest or weed control at 500 ppm (Phakopsora pachyrhizi) | inhibition of growth at 300 ppm (Alternaria solani)

CCN(C)C=Nc1cc(F)cc(Cc2cccc([N+](=O)[O-])c2)c1C [Compound 259, N-ethyl-N′-(5-fluoro-2-methyl-3-(3-nitrobenzyl)phenyl)-N-methylformimidamide]
≥ 70%: inhibition of growth at 300 ppm [1] | inhibition of growth at 300 ppm (Botrytis cinerea) | inhibition of growth at 300 ppm (Rhizoctonia solani) | inhibition of growth at 300 ppm (Pyricularia oryzae) | pest or weed control at 500 ppm (Phakopsora pachyrhizi) | inhibition of growth at 300 ppm (Alternaria solani)

CCN(C)C=Nc1cc(Cl)cc(Nc2cccc(C(F)(F)F)n2)c1C [Compound 274, N′-(5-chloro-2-methyl-3-((6-(trifluoromethyl)pyridin-2-yl)amino)phenyl)-N-ethyl-N-methylformimidamide]
≥ 70%: inhibition of growth at 300 ppm [1] | inhibition of growth at 300 ppm (Botrytis cinerea) | inhibition of growth at 300 ppm (Rhizoctonia solani) | inhibition of growth at 300 ppm (Pyricularia oryzae) | pest or weed control at 500 ppm (Phakopsora pachyrhizi) | inhibition of growth at 300 ppm (Alternaria solani)

CCN(C)C=Nc1cc(F)cc(Cc2cccc(F)c2)c1C [Compound 147, N-ethyl-N′-(5-fluoro-3-(3-fluorobenzyl)-2-methylphenyl)-N-methylformimidamide]
≥ 70%: inhibition of growth at 300 ppm [1] | inhibition of growth at 300 ppm (Botrytis cinerea) | inhibition of growth at 300 ppm (Rhizoctonia solani) | inhibition of growth at 300 ppm (Pyricularia oryzae) | pest or weed control at 500 ppm (Phakopsora pachyrhizi) | inhibition of growth at 300 ppm (Alternaria solani)

CCN(C)C=Nc1cc(F)cc(N(C)c2c(C)cccc2F)c1C [Compound 145, N-ethyl-N′-(5-fluoro-3-((2-fluoro-6-methylphenyl)(methyl)amino)-2-methylphenyl)-N-methylformimidamide]
≥ 70%: inhibition of growth at 300 ppm [1] | inhibition of growth at 300 ppm (Botrytis cinerea) | inhibition of growth at 300 ppm (Rhizoctonia solani) | inhibition of growth at 300 ppm (Pyricularia oryzae) | pest or weed control at 500 ppm (Phakopsora pachyrhizi) | inhibition of growth at 300 ppm (Alternaria solani)

CCN(C)C=Nc1cc(Cl)cc(Nc2ccccc2OC(F)(F)F)c1C [Compound 301, N′-(5-chloro-2-methyl-3-((2-(trifluoromethoxy)phenyl)amino)phenyl)-N-ethyl-N-methylformimidamide]
≥ 70%: inhibition of growth at 300 ppm [1] | inhibition of growth at 300 ppm (Botrytis cinerea) | inhibition of growth at 300 ppm (Rhizoctonia solani) | inhibition of growth at 300 ppm (Pyricularia oryzae) | pest or weed control at 500 ppm (Phakopsora pachyrhizi) | inhibition of growth at 300 ppm (Alternaria solani)

CCN(C)C=Nc1cc(F)cc(Cc2ccccc2C)c1C [Compound 148, N-ethyl-N′-(5-fluoro-2-methyl-3-(2-methylbenzyl)phenyl)-N-methylformimidamide]
≥ 70%: inhibition of growth at 300 ppm [1] | inhibition of growth at 300 ppm (Botrytis cinerea) | inhibition of growth at 300 ppm (Rhizoctonia solani) | inhibition of growth at 300 ppm (Pyricularia oryzae) | pest or weed control at 500 ppm (Phakopsora pachyrhizi) | inhibition of growth at 300 ppm (Alternaria solani)

CCN(C)C=Nc1cc(Cl)cc(N(C)c2ccccc2)c1C [Compound 159, N′-(5-chloro-2-methyl-3-(methyl(phenyl)amino)phenyl)-N-ethyl-N-methylformimidamide]
≥ 70%: inhibition of growth at 300 ppm [1] | inhibition of growth at 300 ppm (Botrytis cinerea) | inhibition of growth at 300 ppm (Pyricularia oryzae) | pest or weed control at 500 ppm (Phakopsora pachyrhizi) | inhibition of growth at 300 ppm (Alternaria solani)

CCN(C)C=Nc1cc(F)cc(Cc2ccccc2Br)c1C [Compound 151, N′-(3-(2-bromobenzyl)-5-fluoro-2-methylphenyl)-N-ethyl-N-methylformimidamide]
≥ 70%: inhibition of growth at 300 ppm [1] | inhibition of growth at 300 ppm (Botrytis cinerea) | inhibition of growth at 300 ppm (Rhizoctonia solani) | inhibition of growth at 300 ppm (Pyricularia oryzae) | pest or weed control at 500 ppm (Phakopsora pachyrhizi) | inhibition of growth at 300 ppm (Alternaria solani)

CCN(C)C=Nc1cc(F)cc(Cc2cccc(C)c2)c1C [Compound 146, N-ethyl-N′-(5-fluoro-2-methyl-3-(3-methylbenzyl)phenyl)-N-methylformimidamide]
≥ 70%: inhibition of growth at 300 ppm [1] | inhibition of growth at 300 ppm (Botrytis cinerea) | inhibition of growth at 300 ppm (Rhizoctonia solani) | inhibition of growth at 300 ppm (Pyricularia oryzae) | pest or weed control at 500 ppm (Phakopsora pachyrhizi) | inhibition of growth at 300 ppm (Alternaria solani)

CCN(C)C=Nc1cc(F)cc(Cc2ccc(Cl)c(F)c2)c1C [Compound 206, N′-(3-(4-chloro-3-fluorobenzyl)-5-fluoro-2-methylphenyl)-N-ethyl-N-methylformimidamide]
≥ 70%: inhibition of growth at 300 ppm [1] | inhibition of growth at 300 ppm (Botrytis cinerea) | inhibition of growth at 300 ppm (Rhizoctonia solani) | inhibition of growth at 300 ppm (Pyricularia oryzae) | pest or weed control at 500 ppm (Phakopsora pachyrhizi) | inhibition of growth at 300 ppm (Alternaria solani)

CCN(C)C=Nc1cc(F)cc(Cc2cccc(Br)c2)c1C [Compound 205, N′-(3-(3-bromobenzyl)-5-fluoro-2-methylphenyl)-N-ethyl-N-methylformimidamide]
≥ 70%: inhibition of growth at 300 ppm [1] | inhibition of growth at 300 ppm (Botrytis cinerea) | inhibition of growth at 300 ppm (Rhizoctonia solani) | inhibition of growth at 300 ppm (Pyricularia oryzae) | pest or weed control at 500 ppm (Phakopsora pachyrhizi) | inhibition of growth at 300 ppm (Alternaria solani)

CCN(C)C=Nc1cc(C#N)cc(Cc2cccc(F)c2)c1C [Compound 297, N′-(5-cyano-3-(3-fluorobenzyl)-2-methylphenyl)-N-ethyl-N-methylformimidamide]
≥ 70%: inhibition of growth at 300 ppm [1] | inhibition of growth at 300 ppm (Botrytis cinerea) | inhibition of growth at 300 ppm (Pyricularia oryzae) | pest or weed control at 500 ppm (Phakopsora pachyrhizi) | inhibition of growth at 300 ppm (Alternaria solani)
